Values quoted from earlier work in US20240100168A1, “LIPID COMPOSITIONS AND METHODS OF PREPARATION THEREOF” (Wake Forest University, priority 2020, published 2024).

Assays:
Settings in all cases: blocks production of pro-inflammatory eicosanoids
[1] = target: T1, COX2 (Homo sapiens, UniProt P35354)
T1 sequence (P35354 18-604): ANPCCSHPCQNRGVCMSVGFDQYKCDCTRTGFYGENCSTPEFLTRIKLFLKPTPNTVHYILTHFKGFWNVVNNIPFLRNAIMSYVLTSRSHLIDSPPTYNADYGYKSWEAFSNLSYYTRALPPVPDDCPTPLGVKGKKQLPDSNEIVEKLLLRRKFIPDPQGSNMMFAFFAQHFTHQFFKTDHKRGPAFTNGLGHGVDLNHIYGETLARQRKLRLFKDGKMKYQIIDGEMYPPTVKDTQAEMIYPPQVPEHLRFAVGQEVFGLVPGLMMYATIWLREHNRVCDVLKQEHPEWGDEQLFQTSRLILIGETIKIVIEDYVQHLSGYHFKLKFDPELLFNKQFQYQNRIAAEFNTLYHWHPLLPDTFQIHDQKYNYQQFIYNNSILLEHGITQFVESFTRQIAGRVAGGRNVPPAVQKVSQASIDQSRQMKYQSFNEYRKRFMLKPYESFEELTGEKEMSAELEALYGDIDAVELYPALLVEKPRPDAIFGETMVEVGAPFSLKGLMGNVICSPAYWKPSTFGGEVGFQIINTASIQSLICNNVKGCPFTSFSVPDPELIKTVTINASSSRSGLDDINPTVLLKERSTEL

[2] = target: COX1 (Homo sapiens, UniProt P23219)
[3] = test system: lipoxygenases

Chain of COX1 (P23219 24-599): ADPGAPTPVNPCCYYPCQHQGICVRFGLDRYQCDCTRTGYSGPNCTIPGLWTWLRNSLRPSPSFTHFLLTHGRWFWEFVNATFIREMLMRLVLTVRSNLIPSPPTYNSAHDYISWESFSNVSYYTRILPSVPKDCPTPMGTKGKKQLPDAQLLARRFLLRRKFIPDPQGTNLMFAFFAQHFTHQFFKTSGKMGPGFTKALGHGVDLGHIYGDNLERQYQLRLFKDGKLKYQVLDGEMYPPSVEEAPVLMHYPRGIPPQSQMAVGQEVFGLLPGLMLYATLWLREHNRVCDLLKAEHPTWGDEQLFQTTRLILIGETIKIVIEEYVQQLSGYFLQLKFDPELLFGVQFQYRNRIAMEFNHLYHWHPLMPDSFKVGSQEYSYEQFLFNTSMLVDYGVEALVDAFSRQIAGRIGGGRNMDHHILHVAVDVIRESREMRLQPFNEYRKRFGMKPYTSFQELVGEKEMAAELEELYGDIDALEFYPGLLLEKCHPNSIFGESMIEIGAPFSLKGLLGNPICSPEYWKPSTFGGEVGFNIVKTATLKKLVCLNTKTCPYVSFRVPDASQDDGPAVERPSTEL

CC/C=C\C/C=C\C/C=C\C/C=C\CCCCCCC(=O)O [ETA, 8Z,11Z,14Z,17Z-eicosatetraenoic acid]
dual inhibitor: inhibition of COX2 [1] | inhibition of COX1 [2] | inhibition of lipoxygenases [3]
